From doi:10.1101/2022.03.24.485529v3, “Distinct bile salt hydrolase substrate preferences dictate C. difficile pathogenesis” (biorxiv, 2022)

How the values were obtained:
LingBSH = target: T1, LingBSH (Limosilactobacillus ingluviei, UniProt A0A0R1U3N2); test: deconjugation of AA-CA pool by LC-IMS-MS; format: biochemical; conditions: pool of CA conjugated to 22 amino acids
T1 construct: gene FC43_GL000624; heterologously expressed and purified; homotetramer; species inferred from the abbreviation Ling
T1 sequence (A0A0R1U3N2 2-327): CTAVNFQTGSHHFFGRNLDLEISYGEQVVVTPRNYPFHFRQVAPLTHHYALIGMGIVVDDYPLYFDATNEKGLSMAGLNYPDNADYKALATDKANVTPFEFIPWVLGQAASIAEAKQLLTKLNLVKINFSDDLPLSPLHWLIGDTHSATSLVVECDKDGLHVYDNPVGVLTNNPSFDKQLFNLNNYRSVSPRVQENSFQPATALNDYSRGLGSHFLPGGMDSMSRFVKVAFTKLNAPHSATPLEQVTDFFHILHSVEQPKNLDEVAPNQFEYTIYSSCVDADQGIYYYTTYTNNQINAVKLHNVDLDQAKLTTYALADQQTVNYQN

LgasBSHa = target: T2, LgasBSHa (Lactobacillus gasseri, UniProt A0A805Z5R7); test: X-ray crystallography; format: binding; conditions: active site
T2 construct: gene bsh; heterologously expressed and purified; homotetramer, neighbouring monomer donates loop to active site
T2 sequence (A0A805Z5R7 2-316): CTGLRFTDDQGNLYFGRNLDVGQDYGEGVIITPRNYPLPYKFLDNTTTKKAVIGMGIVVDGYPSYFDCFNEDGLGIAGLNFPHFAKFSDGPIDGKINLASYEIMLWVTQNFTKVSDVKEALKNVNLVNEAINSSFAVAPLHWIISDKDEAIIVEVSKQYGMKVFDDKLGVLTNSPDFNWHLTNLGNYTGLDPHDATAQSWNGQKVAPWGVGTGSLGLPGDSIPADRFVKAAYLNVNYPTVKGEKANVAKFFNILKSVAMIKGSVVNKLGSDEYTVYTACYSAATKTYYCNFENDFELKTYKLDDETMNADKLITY

Q: With `C[C@H](CCC(=O)N[C@@H](CO)C(=O)O)[C@H]1CC[C@H]2[C@@H]3[C@H](O)C[C@@H]4C[C@H](O)CC[C@]4(C)[C@H]3C[C@H](O)[C@]12C` [Ser-CA] as the compound, how does the “% deconjugation after 5 minutes” value (LingBSH; also purified Ser-CA (enzyme not named in that sentence)) read?
A: Its value is “Ala and Ser-conjugated BAs are efficiently processed”.

Q: How did the X-ray crystallography (LgasBSHa; complexes with taurine alone and with taurine plus CDCA) turn out when `NCCS(=O)(=O)O` [taurine] was run?
A: Its X-ray crystallography is “LgasBSHa was resolved in complexes with taurine or taurine plus CDCA”.

Q: How did the “% deconjugation after 5 minutes” value (LingBSH; also purified Ala-CA (enzyme not named in that sentence)) turn out when `C[C@H](NC(=O)CC[C@@H](C)[C@H]1CC[C@H]2[C@@H]3[C@H](O)C[C@@H]4C[C@H](O)CC[C@]4(C)[C@H]3C[C@H](O)[C@]12C)C(=O)O` [Ala-CA] was run?
A: The value was “Ala and Ser-conjugated BAs are efficiently processed”.

Q: With `C[C@H](CCC(=O)O)[C@H]1CC[C@H]2[C@@H]3[C@H](O)C[C@@H]4C[C@H](O)CC[C@]4(C)[C@H]3CC[C@]12C` [CDCA] as the compound, how does the X-ray crystallography (LgasBSHa; ternary complex with taurine) read?
A: The X-ray crystallography was “LgasBSHa was resolved in complexes with taurine or taurine plus CDCA”.
